One test addresses HPK1 (Homo sapiens (Human), UniProt Q92918). As to the kind of experiment: HPK1 kinase activity inhibition test (ADP-Glo, luminescence). Type of test: biochemical. The conditions noted are these: HPK1 5 nM, ATP 2 μM, read-out: IC50, inhibitory effects of compounds on HPK1 kinase activity. An outline of the steps: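 HPK1 autophosphorylation was run without added substrate. Kinase and compound were preincubated 10 min at 25° C., then ATP was added for 60 min at 25° C. ADP formed was detected by ADP-Glo luminescence, and IC50 was taken from a four-parameter nonlinear fit.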
A general note: ADP-Glo turns the ADP formed in a reaction into a luminescent signal.

The test system of the next test is Human Jurkat-E6-1 cells. The test can be described thus: Measurement of IL-2 secretion of Jurkat cells by ELISA. Type of test: cell-based. The conditions noted are these: Homo sapiens, Jurkat E6.1, anti-CD3/anti-CD28 stimulation 24 hours, read-out: Percentage of the amount of IL-2 secreted from compound treated/DMSO-treated cells; for activity at 1 µM: test compound 1.0 μM; for activity at 3 µM: test compound 3.0 μM. Here is the method:
2. Measurement of IL-2 Secretion of Jurkat Cells by ELISA
Human Jurkat-E6-1 cells were incubated with various concentrations of test compounds for 30 minutes in a humidified incubator at 37° C. and […]. Cells were transferred to cell culture plates pre-coated with anti-human CD3 antibody, then soluble anti-human CD28 antibody was added, and cells were stimulated for 24 hours at 37° C. and 5% CO2 in a humidified incubator. The cell culture medium was collected by centrifugation, and was then transferred to a 96-well transparent microtiter plate (Thermo) pre-coated with anti-human IL-2 antibody, incubated at room temperature for 2 hours, and gently shaken, washed with washing buffer for 4 times, and then followed the ELISA MAX Deluxe Set Human IL-2 (BioLegend) kit procedure, used a microplate reader (Molecular Device, i3X) to read the GD value. The best standard curve was selected by the microplate reader application software, and the corresponding concentration was calculated according to the GD value of the standard. Results are expressed as a percentage of the amount of IL-2 secreted from compound-treated/DMSO-treated cells.
(In general: In an ELISA, binding on a coated surface is turned into a signal by an enzyme label.)

The structures appear in SMILES notation. Counter-ions that a name gives are not always drawn. A value given as a limit tells only on which side of the number the result lay.

Sequence of HPK1 (Q92918 whole entry): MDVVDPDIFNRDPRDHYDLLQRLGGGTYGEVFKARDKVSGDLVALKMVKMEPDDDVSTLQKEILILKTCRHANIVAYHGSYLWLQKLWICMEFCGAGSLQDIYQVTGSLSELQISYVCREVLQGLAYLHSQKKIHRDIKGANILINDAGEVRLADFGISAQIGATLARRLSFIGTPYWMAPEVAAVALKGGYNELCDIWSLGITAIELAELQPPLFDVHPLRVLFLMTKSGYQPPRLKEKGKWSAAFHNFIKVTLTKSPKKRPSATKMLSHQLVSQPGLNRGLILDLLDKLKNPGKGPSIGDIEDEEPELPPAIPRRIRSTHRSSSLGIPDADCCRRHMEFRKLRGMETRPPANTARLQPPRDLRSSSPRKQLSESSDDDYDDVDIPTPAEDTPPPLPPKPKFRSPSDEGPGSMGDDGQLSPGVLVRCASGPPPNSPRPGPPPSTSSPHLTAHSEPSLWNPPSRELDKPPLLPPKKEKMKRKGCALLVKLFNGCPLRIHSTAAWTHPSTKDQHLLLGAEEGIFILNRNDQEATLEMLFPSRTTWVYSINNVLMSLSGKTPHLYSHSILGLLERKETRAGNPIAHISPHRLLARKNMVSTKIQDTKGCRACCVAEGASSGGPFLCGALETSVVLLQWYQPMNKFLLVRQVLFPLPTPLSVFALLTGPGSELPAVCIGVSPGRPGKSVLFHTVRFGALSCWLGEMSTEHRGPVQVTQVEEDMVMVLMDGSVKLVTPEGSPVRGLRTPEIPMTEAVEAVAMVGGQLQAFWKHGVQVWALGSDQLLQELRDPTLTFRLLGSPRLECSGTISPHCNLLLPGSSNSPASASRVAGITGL

For orientation: IC50 means the concentration at which inhibition is half-maximal. As for `CN1CCN(c2ccc(-c3n[nH]c4cc(=O)n(-c5c(F)cccc5C5CC5)nc34)cc2)CC1` [Compound 34, 5-(2-fluoro-6-cyclopropylphenyl)-3-(4-(4-methylpiperazin-1-yl)phenyl)-1H-pyrazolo[4,3-c]pyridazin-6(5H)-one], the IC50 on HPK1 is at most 50 nM. For the same compound, the activity at 1 µM with Human Jurkat-E6-1 cells stood at 284%.

In the case of `COc1cccc(F)c1-n1nc2c(-c3ccc(N4CCC(N5CCOCC5)CC4)cc3)n[nH]c2cc1=O` [Compound 144, 5-(2-fluoro-6-methoxyphenyl)-3-(4-(4-morpholinopiperidin-1-yl)phenyl)-1H-pyrazolo[4,3-c]pyridazin-6(5H)-one], the half-inhibitory concentration (IC50) on HPK1 is at most 50 nM. Moreover, the activity at 3 µM in the test on Human Jurkat-E6-1 cells worked out at 716%. The matching figures for `CN1CCN(c2ccc(-c3n[nH]c4cc(=O)n(-c5cccc6c5OCO6)nc34)cc2)CC1` [Compound 76]: at most 50 nM and 561%. For the compound `Cc1cccc(F)c1-n1nc2c(-c3ccc4c(c3)CNCC4)n[nH]c2cc1=O` [Compound 161, 5-(2-fluoro-6-methylphenyl)-3-(1,2,3,4-tetrahydroisoquinolin-7-yl)-1H-pyrazolo[4,3-c]pyridazin-6(5H)-one hydrochloride], the IC50 on HPK1 is at most 50 nM. Moreover, the activity at 3 µM with Human Jurkat-E6-1 cells came to 393%.

On to `COc1cccc(F)c1-n1nc2c(-c3ccc(N4CCN(C)C(CO)C4)cc3)n[nH]c2cc1=O` (stereo not drawn) [Compound 121, 5-(2-fluoro-6-methoxyphenyl)-3-(4-(3-(hydroxymethyl)-4-methylpiperazin-1-yl)phenyl)-1H-pyrazolo[4,3-c]pyridazin-6(5H)-one], for which the IC50 on HPK1 is at most 50 nM. The activity at 3 µM in the test on Human Jurkat-E6-1 cells was found to be 459%. For `Cc1cc(C#N)cc(F)c1-n1nc2c(-c3ccc4c(c3)CN(C)CC4)n[nH]c2cc1=O` [Compound 170, 3-fluoro-5-methyl-4-(3-(2-methyl-1,2,3,4-tetrahydroisoquinolin-7-yl)-6-oxo-1H-pyrazolo[4,3-c]pyridazin-5(6H)-yl)benzonitrile], the IC50 at HPK1 was at most 50 nM. For the same compound, the activity at 1 µM in the test on Human Jurkat-E6-1 cells worked out at 279%. In the case of `COCCN1CCN(c2ccc(-c3n[nH]c4cc(=O)n(-c5c(C)cccc5F)nc34)cn2)CC1` [Compound 119, 5-(2-fluoro-6-methylphenyl)-3-(6-(4-(2-methoxyethyl)piperazin-1-yl)pyrid-3-yl)-1H-pyrazolo[4,3-c]pyridazin-6(5H)-one], the IC50 at HPK1 is at most 50 nM. For the same compound, the activity at 3 µM in the test on Human Jurkat-E6-1 cells came to 531%.

As to `COc1cccc(F)c1-n1nc2c(-c3ccc(N4CCN(C)CC4)cc3)n[nH]c2c(C)c1=O` [Compound 154, 5-(2-fluoro-6-methoxyphenyl)-7-methyl-3-(4-(4-methylpiperazin-1-yl)phenyl)-1H-pyrazolo[4,3-c]pyridazin-6(5H)-one], at HPK1, the IC50 lay in the range of 50 to 500 nM. Also, the activity at 1 µM with Human Jurkat-E6-1 cells came to 382%.

For the compound `Cc1cc(C#N)cc(F)c1-n1nc2c(-c3ccc4c(c3)CNCC4)n[nH]c2cc1=O` [Compound 171, 3-fluoro-5-methyl-4-(3-(1,2,3,4-tetrahydroisoquinolin-7-yl)-6-oxo-1H-pyrazolo[4,3-c]pyridazin-5(6H)-yl)benzonitrile], the IC50 at HPK1 lay within 50 to 500 nM. In addition, the activity at 3 µM in the test on Human Jurkat-E6-1 cells was 220%. Regarding `CCc1cccc(F)c1-n1nc2c(-c3ccc(N4CCN(CCO)CC4)cc3)n[nH]c2cc1=O` [Compound 112, 5-(2-ethyl-6-fluorophenyl)-3-(4-(4-(2-hydroxyethyl)piperazin-1-yl)phenyl)-1H-pyrazolo[4,3-c]pyridazin-6(5H)-one], at HPK1, the IC50 was at most 50 nM. In addition, the activity at 3 µM in the test with Human Jurkat-E6-1 cells stood at 703%. Consider `COc1cc(N2CCN(C)CC2)ccc1-c1n[nH]c2cc(=O)n(-c3c(C)cccc3F)nc12` [Compound 16, 5-(2-fluoro-6-methylphenyl)-3-(2-methoxy-4-(4-methylpiperazin-1-yl)phenyl)-1H-pyrazolo[4,3-c]pyridazin-6(5H)-one], for which the IC50 on HPK1 was in the range of 500 to 2000 nM. For the same compound, the activity at 1 µM with Human Jurkat-E6-1 cells worked out at 156%. As to `Cc1ccccc1-n1nc2c(-c3ccc(N4CCN(C)CC4)cc3)n[nH]c2cc1=O` [Compound 5, 5-(2-methylphenyl)-3-(4-(4-methylpiperazin-1-yl)phenyl)-1H-pyrazolo[4,3-c]pyridazin-6(5H)-one], the IC50 at HPK1 fell in the range of 50 to 500 nM. In the test on Human Jurkat-E6-1 cells, the activity at 1 µM is 162%. Regarding `Cc1cccc(F)c1-n1nc2c(-c3ccc(N4CCN(C5COC5)CC4)nc3)n[nH]c2cc1=O` [Compound 103], the IC50 at HPK1 is at most 50 nM. Moreover, in the test with Human Jurkat-E6-1 cells, the activity at 3 µM was found to be 716%. As for `COc1cccc(F)c1-n1nc2c(-c3cnc(N4CCOCC4)s3)n[nH]c2cc1=O` [Compound 148], the 50% inhibitory concentration (IC50) at HPK1 was at most 50 nM. For the same compound, the activity at 1 µM in the test with Human Jurkat-E6-1 cells came to 531%.

Turning to `Cc1cccc(F)c1-n1nc2c(-c3ccc(N4C[C@@H](C)N(C)[C@@H](C)C4)cc3)n[nH]c2cc1=O` [Compound 90, 5-(2-fluoro-6-methylphenyl)-3-(4-((3S,5R)-3,4,5-trimethylpiperazin-1-yl)phenyl)-1H-pyrazolo[4,3-c]pyridazin-6(5H)-one], the IC50 at HPK1 was at most 50 nM. Moreover, in the test with Human Jurkat-E6-1 cells, the activity at 3 µM came out at 667%. `Cc1cccc(F)c1-n1nc2c(-c3ccc(N4CCN(C)CC4)c(F)c3)n[nH]c2cc1=O` [Compound 94]: the IC50 at HPK1 was at most 50 nM. Besides, the activity at 3 µM with Human Jurkat-E6-1 cells worked out at 414%. Take `CCS(=O)(=O)N1CCN(c2ccc(-c3n[nH]c4cc(=O)n(-c5c(C)cccc5F)nc34)cn2)CC1` [Compound 105]: at HPK1, the half-inhibitory concentration (IC50) was at most 50 nM. Further, in the test on Human Jurkat-E6-1 cells, the activity at 3 µM was 623%. Turning to `Cc1cccc(F)c1-n1nc2c(-c3ccc(N4CCN5CCOC[C@@H]5C4)cc3)n[nH]c2cc1=O` [Compound 133, (S)-5-(2-fluoro-6-methylphenyl)-3-(4-(hexahydropyrazino[2,1-c][1,4]oxazin-8(1H)-yl)phenyl)-1H-pyrazolo[4,3-c]pyridazin-6(5H)-one], on HPK1, the IC50 is at most 50 nM. The activity at 3 µM in the test with Human Jurkat-E6-1 cells was found to be 800%. With `CCc1cccc(F)c1-n1nc2c(-c3ccc(N4CCN(CC(C)(C)O)CC4)cc3)n[nH]c2cc1=O` [Compound 116, 5-(2-ethyl-6-fluorophenyl)-3-(4-(4-(2-hydroxyl-2-methylpropyl)piperazin-1-yl)phenyl)-1H-pyrazolo[4,3-c]pyridazin-6(5H)-one], in the test with Human Jurkat-E6-1 cells, the activity at 1 µM is 193%. As for `Cc1cccc(F)c1-n1nc2c(-c3ccc(N4CCN5C(=O)OCC5C4)nc3)n[nH]c2cc1=O` (stereo not drawn) [Compound 129, 7-(5-(5-(2-fluoro-6-methylphenyl)-6-oxo-5,6-dihydro-1H-pyrazolo[4,3-c]pyridazin-3-yl)pyridin-2-yl)tetrahydro-1H-oxazolo[3,4-a]pyrazin-3(5H)-one], in the test with Human Jurkat-E6-1 cells, the activity at 3 µM came out at 807%. On to `Cc1cccc(F)c1-n1nc2c(-c3ccc4c(c3)CN(C)[C@H](CO)C4)n[nH]c2cc1=O` [Compound 176, (S)-5-(2-fluoro-6-methylphenyl)-3-(3-(hydroxymethyl)-2-methyl-1,2,3,4-tetrahydroisoquinolin-7-yl)-1H-pyrazolo[4,3-c]pyridazin-6(5H)-one], for which, at HPK1, the IC50 was at most 50 nM.

Turning to `Cc1cccc(F)c1-n1nc2c(-c3cnc(N4CCOCC4)nc3)n[nH]c2cc1=O` [Compound 32, 5-(2-fluoro-6-methylphenyl)-3-(2-morpholinylpyrimidin-5-yl)-1H-pyrazolo[4,3-c]pyridazin-6(5H)-one], the IC50 on HPK1 was in the range of 50 to 500 nM.

Take `Cc1cccc(F)c1-n1nc2c(-c3ccc4c(c3)CCN(C3CCOCC3)C4)n[nH]c2cc1=O` [Compound 195, 5-(2-fluoro-6-methylphenyl)-3-(2-(tetrahydro-2H-pyran-4-yl)-1,2,3,4-tetrahydroisoquinolin-6-yl)-1H-pyrazolo[4,3-c]pyridazin-6(5H)-one]: the IC50 on HPK1 was 50 to 500 nM. In the case of `Cc1cc(C#N)cc(F)c1-n1nc2c(-c3ccc4c(c3)CN(C(=O)CO)CC4)n[nH]c2cc1=O` [Compound 172, 3-fluoro-4-(3-(2-(2-hydroxylacetyl)-1,2,3,4-tetrahydroisoquinolin-7-yl)-6-oxo-1H-pyrazolo[4,3-c]pyridazin-5(6H)-yl)-5-methylbenzonitrile], the IC50 on HPK1 fell in the range of 50 to 500 nM. Regarding `Cc1cccc(F)c1-n1nc2c(-c3ccc4c(c3)C(CO)N(C)CC4)n[nH]c2cc1=O` (stereo not drawn) [Compound 184, 5-(2-fluoro-6-methylphenyl)-3-(1-(hydroxymethyl)-2-methyl-1,2,3,4-tetrahydroisoquinolin-7-yl)-1H-pyrazolo[4,3-c]pyridazin-6(5H)-one], the IC50 on HPK1 was 50 to 500 nM. Consider `COc1cccc(F)c1-n1nc2c(-c3ccc4c(c3F)CN(C)CC4)n[nH]c2cc1=O` [Compound 190, 3-(8-fluoro-2-methyl-1,2,3,4-tetrahydroisoquinolin-7-yl)-5-(2-fluoro-6-methoxyphenyl)-1H-pyrazolo[4,3-c]pyridazin-6(5H)-one], for which the IC50 at HPK1 was 50 to 500 nM.

In the case of `Cc1cccc(F)c1-n1nc2c(-c3ccc4c(c3)CN(C3CCOCC3)CC4)n[nH]c2cc1=O` [Compound 167, 5-(2-fluoro-6-methylphenyl)-3-(2-(tetrahydro-2H-pyran-4-yl)-1,2,3,4-tetrahydroisoquinolin-7-yl)-1H-pyrazolo[4,3-c]pyridazin-6(5H)-one], the IC50 at HPK1 was 50 to 500 nM.

These data come from patent US20230322789A1, “PYRAZOLOPYRIDAZINONE COMPOUND, AND PHARMACEUTICAL COMPOSITION AND USE THEREOF” (BroadenBio Co., Ltd., priority 2020, published 2023).
